Assay results taken from EPA's ToxValDB 9.5.
Where “and” joins values, the source holds several entries; their conditions need not be identical. Identical values can stand only once.

Assays:
[1] = test system: Rattus norvegicus; settings: oral
[2] = test system: Rattus norvegicus; settings: uterotrophic; duration: 3 days; injection; subcutaneous; Active
[3] = test system: Rattus norvegicus
[4] = test system: Danio rerio; settings: whole body
[5] = test system: Rattus norvegicus; settings: oral, gavage, Sprague-Dawley
[6] = test system: Rattus norvegicus; settings: subchronic
[7] = test system: Rattus norvegicus; settings: repeat dose other; oral
[8] = test system: Mus musculus; settings: repeat dose other; oral
[9] = reproduction developmental, duration: 4 days, oral, gavage, F, Sprague-Dawley, generation: P0, P0: dam body weight gain
[10] = short-term, duration: 3 days, injection, subcutaneous, F, Sprague-Dawley, uterus: absolute blotted uterine weight in the presence of EE
[11] = short-term, duration: 10 days, oral, gavage, M, BrlHan:WIST, body weight + male accessory sex gland: BC/LA weight (relative)
[12] = short-term, duration: 10 days, oral, gavage, M, BrlHan:WIST, male accessory sex gland: glans penis weight (relative)
[13] = short-term, duration: 10 days, oral, gavage, M, BrlHan:WIST, male accessory sex gland: relative bulbourethral gland weight in the presence of TP + penis: relative penis weight in the absence of TP
[14] = short-term, duration: 14 days, oral, gavage, M, Sprague-Dawley, body weight + serum LH + serum TCHO
[15] = short-term, duration: 14 days, oral, gavage, M, Sprague-Dawley, serum FSH
[16] = short-term, duration: 14 days, oral, gavage, M, Sprague-Dawley, serum T + testis: testis/body weight
[17] = short-term, duration: 28 days, oral, gavage, F, Sprague-Dawley, body weight
[18] = short-term, duration: 28 days, oral, gavage, F, Sprague-Dawley, heart: heart weight + thymus: serum T4
[19] = short-term, duration: 28 days, oral, gavage, M, Sprague-Dawley, adrenal gland: hypertrophy of zona fasciculata + body weight + heart: heart weight + liver: decreased hepatocytic glycogen + liver: liver …
[20] = chronic, duration: 120 days, F, AB-type, E2 + E2:T ratio + gene expression
[21] = chronic, duration: 120 days, M/F, AB-type, fertilization rate + malformation rate + survival rate
[22] = chronic, duration: 120 days, M, AB-type, E2 + E2:T ratio + gene expression + liver: vtg1 expression + T
[23] = developmental, duration: 21 days, M/F, developmental lesion
[24] = short-term, duration: 28 days, F, VTG expression
[25] = short-term, duration: 28 days, F, thymus: Free T3

## ClC=C(Cl)CCl [1,2,3-Trichloropropene]
[1]; short-term, duration: 4 weeks, gavage, M/F, Crl:CD(SD), respiratory
  NOAEL: 30 mg/kg-day

## Oc1ccc(C(c2ccc(O)cc2)(C(F)(F)F)C(F)(F)F)cc1 [Bisphenol AF]
[2]
  LEL: 4 mg/kg-day and 8 mg/kg-day and 4.04 mg/kg-day
[3]; [9]
  LOEL: 400 mg/kg-day
  NOEL: 300 mg/kg-day
[3]; short-term, duration: 3 days, injection, subcutaneous, F, Crj:CD, body weight
  NOEL: 100 mg/kg-day
[3]; short-term, duration: 3 days, injection, subcutaneous, F, Crj:CD, uterus: uterine dry weight (absolute) + uterus: uterine dry weight (relative)
  LOEL: 8 mg/kg-day
[3]; short-term, duration: 3 days, injection, subcutaneous, F, Sprague-Dawley, body weight in the absence of EE + body weight in the presence of EE
  NOEL: 100 mg/kg-day
[3]; short-term, duration: 3 days, injection, subcutaneous, F, Sprague-Dawley, uterus: absolute blotted uterine weight in the absence of EE + uterus: relative blotted uterine weight in the absence of EE + uterus: …
  LOEL: 4 mg/kg-day
[3]; [10]
  LOEL: 20 mg/kg-day
  NOEL: 4 mg/kg-day
[3]; [11]
  LOEL: 200 mg/kg-day
  NOEL: 50 mg/kg-day
[3]; short-term, duration: 10 days, oral, gavage, M, BrlHan:WIST, male accessory sex gland: Cowper's gland weight (relative) + male accessory sex gland: seminal vesicle weight (relative) + male accessory …
  NOEL: 600 mg/kg-day
[3]; [12]
  LOEL: 600 mg/kg-day
  NOEL: 200 mg/kg-day
[3]; short-term, duration: 10 days, oral, gavage, M, BrlHan:WIST, male accessory sex gland: relative bulbourethral gland weight in the absence of TP + male accessory sex gland: relative seminal vesicle …
  NOEL: 600 mg/kg-day
[3]; [13]
  LOEL: 600 mg/kg-day
  NOEL: 200 mg/kg-day
[3]; short-term, duration: 10 days, oral, gavage, M, BrlHan:WIST, male accessory sex gland: relative seminal vesicle weight in the presence of TP + penis: relative penis weight in the presence of TP
  LOEL: 50 mg/kg-day
[3]; [14]
  LOEL: 50 mg/kg-day
  NOEL: 10 mg/kg-day
[3]; [15]
  LOEL: 10 mg/kg-day
  NOEL: 2 mg/kg-day
[3]; [16]
  LOEL: 200 mg/kg-day
  NOEL: 50 mg/kg-day
[3]; short-term, duration: 14 days, oral, gavage, M, Sprague-Dawley, testis: testis weight
  NOEL: 200 mg/kg-day
[3]; short-term, duration: 28 days, oral, gavage, F, Sprague-Dawley, adrenal gland: hypertrophy of zona fasciculata + bone marrow: decreased hematopoiesis + brain: brain weight + liver: decreased hepatocytic …
  NOEL: 100 mg/kg-day
[3]; [17]
  LOEL: 30 mg/kg-day
  NOEL: 10 mg/kg-day
[3]; [18]
  LOEL: 100 mg/kg-day
  NOEL: 30 mg/kg-day
[3]; short-term, duration: 28 days, oral, gavage, M, Sprague-Dawley, adrenal gland: adrenals weight + bone marrow: decreased hematopoiesis + brain: brain weight + spleen: decreased extramedullary hematopoiesis…
  NOEL: 100 mg/kg-day
[3]; [19]
  LOEL: 100 mg/kg-day
  NOEL: 30 mg/kg-day
[4]; [20]
  LOEL: 0.125 mg/L
  NOEL: 0.025 mg/L
[4]; [21]
  LOEL: 0.125 mg/L
  NOEL: 0.025 mg/L
[4]; chronic, duration: 120 days, M/F, AB-type, hatchability
  LOEL: 0.005 mg/L
[4]; [22]
  LOEL: 0.025 mg/L
  NOEL: 0.005 mg/L
[4]; [23]
  LOEL: 1.5 mg/L
  NOEL: 1 mg/L
[4]; short-term, duration: 21 days, M/F, vitellogenin
  LOEL: 0.5 mg/L
[4]; [24]
  LOEL: 0.25 mg/L
  NOEL: 0.05 mg/L
[4]; short-term, duration: 28 days, F, condition factor
  LOEL: 0.05 mg/L
[4]; [25]
  LOEL: 1 mg/L
  NOEL: 0.25 mg/L
[4]; short-term, duration: 28 days, M, 17beta-estradiol + VTG expression
  LOEL: 1 mg/L
[4]; short-term, duration: 28 days, M, VTG expression
  NOEL: 0.25 mg/L
[4]; short-term, duration: 28 days, M, body weight + length
  NOEL: 0.05 mg/L
[4]; short-term, duration: 28 days, M, body weight + length + T
  LOEL: 0.25 mg/L
[5]; subchronic, M, Clinical Observation: Salivation Perioral smudge + Body Weight Changes: Gain decrease + Food Consumption: decrease + Hematology: RBC …
  NOEL: < 30 mg/kg-day

## c1ccc(Nc2ccc(Nc3ccccc3)cc2)cc1 [N,N'-Diphenyl-p-phenylenediamine]
[1]; reproduction developmental, diet, F, Sprague-Dawley
  NOAEL: 0.3 mg/kg-day
[5]; short-term, duration: 28 days
  NOEL: 1000 mg/kg-day

## CC(=O)CC(C)C [4-Methyl-2-pentanone]
[6]; duration: 13 weeks, oral, gavage, Kidney: Increased absolute weight in females + Kidney: Increased relative weight in females + Kidney: Increased urinary protein levels in …
  NOAEL: 250 mg/kg-day
[6]; duration: 90 days, inhalation, intermittent, Kidney: Effects + Liver: Increased weight
  NOEL: 205 mg/m3
[7]
  NOAEL: 25 mg/kg-day

## CCN(C=O)CC [Diethylformamide]
[1]; chronic, duration: 73 weeks, gavage, M, Wistar, Whole Body Effects
  NOAEL: 1.1 mg/kg-day

## Cc1cc(N)ccc1N.O=S(=O)(O)O [p-Toluenediamine sulfate]
[1]; subchronic, duration: 13 weeks, gavage, M, Sprague-Dawley
  NOAEL: 2.5 mg/kg-day

## [Na+].[O]=[Nb](=[O])[O-] [Sodium niobate (NaNbO3)]
[8]
  LOAEL: 1.55 mg/kg-day
  NOAEL: 0.155 mg/kg-day

## CNN [Methylhydrazine]
[1]; developmental, duration: 13 days, gavage, F, Sprague-Dawley, developmental
  NOAEL: 1 mg/kg-day
